Here are results for 4 compounds from article PMC5564600 (Oncotarget, 2017).

Common to all, as to assay: biochemical
Common to all, as to assay type: binding

The target of experiment [1] is T1, panel of 442 kinases (Homo sapiens, UniProt O43293).
T1 construct: purchased Ambit Biosciences (scanMAXX KINOMEscan)
The note with it: DAPK3; for remaining activity at 1 µM: read-out: % of control at 1 µM.

Experiment [2] deals with T2, panel of 442 kinases (Homo sapiens, UniProt O75914).
T2 construct: purchased Ambit Biosciences (scanMAXX KINOMEscan)
T2 sequence (O75914 whole entry): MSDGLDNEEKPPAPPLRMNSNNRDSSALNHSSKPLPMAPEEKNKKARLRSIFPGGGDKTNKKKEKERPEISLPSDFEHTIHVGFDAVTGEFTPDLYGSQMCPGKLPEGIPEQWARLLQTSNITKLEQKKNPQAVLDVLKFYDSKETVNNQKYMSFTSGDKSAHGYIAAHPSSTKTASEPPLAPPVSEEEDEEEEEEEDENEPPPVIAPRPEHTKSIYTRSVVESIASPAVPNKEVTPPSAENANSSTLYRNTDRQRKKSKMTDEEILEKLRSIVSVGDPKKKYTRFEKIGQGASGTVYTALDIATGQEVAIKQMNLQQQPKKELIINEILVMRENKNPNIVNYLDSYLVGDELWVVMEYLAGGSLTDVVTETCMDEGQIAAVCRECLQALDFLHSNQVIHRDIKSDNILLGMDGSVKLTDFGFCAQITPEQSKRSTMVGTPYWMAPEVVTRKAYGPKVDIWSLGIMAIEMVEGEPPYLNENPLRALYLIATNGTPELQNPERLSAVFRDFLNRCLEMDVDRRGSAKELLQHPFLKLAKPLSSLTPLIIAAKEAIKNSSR
The note with it: kinase PAK3; for remaining activity at 1 µM: read-out: % of control at 1 µM.

Experiment [3] addresses T3, panel of 442 kinases (Homo sapiens, UniProt O95382).
T3 construct: purchased Ambit Biosciences (scanMAXX KINOMEscan)
T3 sequence (O95382 1-1288): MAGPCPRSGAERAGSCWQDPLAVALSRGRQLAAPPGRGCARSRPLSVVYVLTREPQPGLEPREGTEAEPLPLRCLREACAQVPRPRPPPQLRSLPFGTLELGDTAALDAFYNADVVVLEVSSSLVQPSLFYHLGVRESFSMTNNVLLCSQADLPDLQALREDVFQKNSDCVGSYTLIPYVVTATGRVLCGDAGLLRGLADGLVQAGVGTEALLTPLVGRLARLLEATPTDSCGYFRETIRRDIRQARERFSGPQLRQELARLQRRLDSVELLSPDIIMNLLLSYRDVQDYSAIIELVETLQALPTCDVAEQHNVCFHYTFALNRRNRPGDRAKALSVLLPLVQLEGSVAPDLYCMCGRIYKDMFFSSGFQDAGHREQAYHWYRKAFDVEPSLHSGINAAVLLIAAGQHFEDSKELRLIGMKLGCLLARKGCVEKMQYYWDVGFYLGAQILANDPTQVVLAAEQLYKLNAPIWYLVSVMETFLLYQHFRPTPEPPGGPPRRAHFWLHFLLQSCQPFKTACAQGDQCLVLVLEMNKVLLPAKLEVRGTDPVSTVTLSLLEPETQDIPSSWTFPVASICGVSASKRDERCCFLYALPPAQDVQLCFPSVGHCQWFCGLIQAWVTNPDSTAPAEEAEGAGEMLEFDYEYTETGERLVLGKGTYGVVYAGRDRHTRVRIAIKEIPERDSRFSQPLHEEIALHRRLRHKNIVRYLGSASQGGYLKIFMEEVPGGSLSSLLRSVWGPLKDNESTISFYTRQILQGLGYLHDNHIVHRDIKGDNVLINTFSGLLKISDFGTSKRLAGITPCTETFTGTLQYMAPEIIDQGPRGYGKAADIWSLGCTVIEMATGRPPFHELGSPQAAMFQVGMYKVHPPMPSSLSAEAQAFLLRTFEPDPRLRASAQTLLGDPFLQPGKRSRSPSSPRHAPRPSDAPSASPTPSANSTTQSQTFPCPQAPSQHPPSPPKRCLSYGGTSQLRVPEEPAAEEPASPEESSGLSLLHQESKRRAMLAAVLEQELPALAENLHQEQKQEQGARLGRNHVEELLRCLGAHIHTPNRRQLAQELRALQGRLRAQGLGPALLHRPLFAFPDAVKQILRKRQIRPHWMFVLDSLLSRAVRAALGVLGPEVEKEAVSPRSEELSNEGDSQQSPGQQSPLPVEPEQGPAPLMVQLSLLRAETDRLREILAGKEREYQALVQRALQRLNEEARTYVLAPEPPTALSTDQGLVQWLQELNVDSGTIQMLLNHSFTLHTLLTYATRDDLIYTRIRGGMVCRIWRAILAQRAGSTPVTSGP
The following applies: ASK2; for remaining activity at 1 µM: read-out: % of control at 1 µM.

Experiment [4] addresses T4, panel of 442 kinases (Homo sapiens, UniProt P49841).
T4 construct: purchased Ambit Biosciences (scanMAXX KINOMEscan)
The note with it: kinase GSK3B; for remaining activity at 1 µM: read-out: % of control at 1 µM.

The target of experiment [5] is T5, panel of 442 kinases (Homo sapiens, UniProt Q14289).
T5 construct: purchased Ambit Biosciences (scanMAXX KINOMEscan)
T5 sequence (Q14289 whole entry): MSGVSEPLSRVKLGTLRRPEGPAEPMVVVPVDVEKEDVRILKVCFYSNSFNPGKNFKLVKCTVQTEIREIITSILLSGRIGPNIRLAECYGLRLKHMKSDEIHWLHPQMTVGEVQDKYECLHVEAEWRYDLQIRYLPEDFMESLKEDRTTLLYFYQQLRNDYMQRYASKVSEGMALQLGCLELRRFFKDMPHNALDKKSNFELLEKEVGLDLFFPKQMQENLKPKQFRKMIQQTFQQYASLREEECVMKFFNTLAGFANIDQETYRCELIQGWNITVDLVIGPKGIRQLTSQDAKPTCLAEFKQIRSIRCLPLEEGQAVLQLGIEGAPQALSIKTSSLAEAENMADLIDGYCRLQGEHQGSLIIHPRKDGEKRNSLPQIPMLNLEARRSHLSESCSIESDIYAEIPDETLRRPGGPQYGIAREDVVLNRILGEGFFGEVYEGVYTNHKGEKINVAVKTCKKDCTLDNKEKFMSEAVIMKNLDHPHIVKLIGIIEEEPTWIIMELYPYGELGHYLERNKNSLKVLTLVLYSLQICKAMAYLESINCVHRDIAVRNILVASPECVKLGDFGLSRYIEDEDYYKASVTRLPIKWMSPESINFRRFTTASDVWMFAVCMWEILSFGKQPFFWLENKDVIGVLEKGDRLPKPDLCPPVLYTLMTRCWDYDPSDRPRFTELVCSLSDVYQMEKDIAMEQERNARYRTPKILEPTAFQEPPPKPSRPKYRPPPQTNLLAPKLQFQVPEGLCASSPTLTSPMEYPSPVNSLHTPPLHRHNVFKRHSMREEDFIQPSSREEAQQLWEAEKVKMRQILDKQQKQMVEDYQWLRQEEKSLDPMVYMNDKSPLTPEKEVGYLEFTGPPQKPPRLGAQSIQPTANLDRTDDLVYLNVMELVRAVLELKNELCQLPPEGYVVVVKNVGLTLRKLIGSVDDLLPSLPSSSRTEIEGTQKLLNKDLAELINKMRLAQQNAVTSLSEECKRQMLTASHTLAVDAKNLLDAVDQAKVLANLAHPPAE
The following applies: kinase PYK2; for remaining activity at 1 µM: read-out: PYK2 (% of control at 1 µM).

The target in experiment [6] is T6, panel of 442 kinases (Homo sapiens, UniProt Q8TD19).
T6 construct: purchased Ambit Biosciences (scanMAXX KINOMEscan)
T6 sequence (Q8TD19 1-979): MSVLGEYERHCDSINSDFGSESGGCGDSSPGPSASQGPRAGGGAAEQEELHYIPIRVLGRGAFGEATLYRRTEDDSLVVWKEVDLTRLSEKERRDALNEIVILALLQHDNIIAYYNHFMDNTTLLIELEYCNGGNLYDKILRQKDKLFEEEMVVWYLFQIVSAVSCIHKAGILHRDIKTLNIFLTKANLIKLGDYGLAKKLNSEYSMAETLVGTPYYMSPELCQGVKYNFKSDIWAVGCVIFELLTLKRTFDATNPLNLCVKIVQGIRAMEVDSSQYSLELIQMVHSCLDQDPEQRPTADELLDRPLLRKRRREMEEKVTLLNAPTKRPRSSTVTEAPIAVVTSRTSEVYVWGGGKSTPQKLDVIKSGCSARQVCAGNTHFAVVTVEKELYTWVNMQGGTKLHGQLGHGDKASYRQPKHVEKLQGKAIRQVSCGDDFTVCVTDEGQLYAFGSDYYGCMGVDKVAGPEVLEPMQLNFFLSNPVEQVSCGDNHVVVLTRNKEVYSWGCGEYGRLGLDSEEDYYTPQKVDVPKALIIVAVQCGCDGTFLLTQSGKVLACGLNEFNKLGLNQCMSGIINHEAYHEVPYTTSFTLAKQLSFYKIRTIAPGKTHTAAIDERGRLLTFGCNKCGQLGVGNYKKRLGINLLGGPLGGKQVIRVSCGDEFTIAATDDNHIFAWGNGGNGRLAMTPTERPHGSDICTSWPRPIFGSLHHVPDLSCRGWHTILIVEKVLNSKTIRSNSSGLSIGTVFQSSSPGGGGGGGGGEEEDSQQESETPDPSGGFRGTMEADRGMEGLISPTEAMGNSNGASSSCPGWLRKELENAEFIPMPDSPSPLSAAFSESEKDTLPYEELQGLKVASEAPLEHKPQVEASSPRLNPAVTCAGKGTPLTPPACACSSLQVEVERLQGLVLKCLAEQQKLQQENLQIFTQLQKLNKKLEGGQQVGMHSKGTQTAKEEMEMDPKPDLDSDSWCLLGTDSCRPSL
The note with it: kinase NEK9; for remaining activity at 1 µM: read-out: % of control at 1 µM.

Experiment [7] concerns the target T7, panel of 442 kinases (Homo sapiens, UniProt Q9Y6M4).
T7 construct: purchased Ambit Biosciences (scanMAXX KINOMEscan)
The following applies: CSNK1G3; for remaining activity at 1 µM: read-out: % of control at 1 µM.

Setting [8] is: 10 µM, read-out: % of control at 10 µM.

T1 sequence (O43293 whole entry): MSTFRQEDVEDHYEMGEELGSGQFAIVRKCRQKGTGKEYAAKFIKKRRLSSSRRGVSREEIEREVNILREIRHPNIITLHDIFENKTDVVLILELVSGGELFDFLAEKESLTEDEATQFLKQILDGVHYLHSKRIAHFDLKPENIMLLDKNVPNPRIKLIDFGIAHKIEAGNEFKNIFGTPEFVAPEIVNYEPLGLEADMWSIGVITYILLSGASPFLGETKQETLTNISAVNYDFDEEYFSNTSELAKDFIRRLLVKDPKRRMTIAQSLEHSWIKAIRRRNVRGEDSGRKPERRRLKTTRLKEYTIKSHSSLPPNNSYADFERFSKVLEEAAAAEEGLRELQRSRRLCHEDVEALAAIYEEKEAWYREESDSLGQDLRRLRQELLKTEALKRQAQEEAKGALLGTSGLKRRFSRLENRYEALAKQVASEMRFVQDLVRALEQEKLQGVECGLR
T4 sequence (P49841 whole entry): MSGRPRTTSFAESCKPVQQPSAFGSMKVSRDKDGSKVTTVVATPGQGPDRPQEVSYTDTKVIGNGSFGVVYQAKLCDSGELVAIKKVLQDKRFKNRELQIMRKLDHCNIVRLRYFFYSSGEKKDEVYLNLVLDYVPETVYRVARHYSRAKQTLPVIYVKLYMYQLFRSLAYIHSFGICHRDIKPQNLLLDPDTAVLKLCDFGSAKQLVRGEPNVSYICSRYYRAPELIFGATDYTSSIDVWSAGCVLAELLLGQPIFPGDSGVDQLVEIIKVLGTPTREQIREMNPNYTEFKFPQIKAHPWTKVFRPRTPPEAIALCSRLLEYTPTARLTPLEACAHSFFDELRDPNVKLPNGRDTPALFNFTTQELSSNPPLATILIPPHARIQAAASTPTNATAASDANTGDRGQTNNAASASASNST
T7 sequence (Q9Y6M4 whole entry): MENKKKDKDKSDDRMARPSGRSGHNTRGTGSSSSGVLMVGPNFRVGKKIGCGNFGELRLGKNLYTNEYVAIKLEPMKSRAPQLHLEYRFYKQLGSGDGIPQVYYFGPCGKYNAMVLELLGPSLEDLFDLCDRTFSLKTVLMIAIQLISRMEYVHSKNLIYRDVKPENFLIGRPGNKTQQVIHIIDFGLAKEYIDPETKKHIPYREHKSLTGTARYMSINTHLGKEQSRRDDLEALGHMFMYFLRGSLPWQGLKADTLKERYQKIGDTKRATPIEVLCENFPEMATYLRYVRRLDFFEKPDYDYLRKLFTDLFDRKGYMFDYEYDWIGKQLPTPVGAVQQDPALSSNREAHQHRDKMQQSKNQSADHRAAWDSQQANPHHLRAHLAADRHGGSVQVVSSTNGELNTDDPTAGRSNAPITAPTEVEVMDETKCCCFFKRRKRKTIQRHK

For `Nc1cc(C(F)(F)F)c(-c2cc(N3CCOCC3)nc(N3CCOCC3)n2)cn1` [Buparlisib], the remaining activity at 1 µM stood at 100% on panel of 442 kinases [1]; 89% at panel of 442 kinases [2]; 87% at panel of 442 kinases [3]; 86% on panel of 442 kinases [4]; 100% at panel of 442 kinases [5]; 94% on panel of 442 kinases [6]. On panel of 442 kinases [7], the remaining activity at 1 µM came to 100%. The remaining activity at 10 µM at panel of 442 kinases [1] (setting [8]) was 100%; at panel of 442 kinases [2] (setting [8]), 100%; at panel of 442 kinases [3] (setting [8]), 100%; at panel of 442 kinases [4] (setting [8]), 100%; on panel of 442 kinases [5] (10 µM, read-out: PYK2 (% of control at 10 µM)), 100%; on panel of 442 kinases [6] (setting [8]), 100%. Also, the remaining activity at 10 µM at panel of 442 kinases [7] (setting [8]) is 100%.
As to `Cn1c(=O)n(-c2ccc(C(C)(C)C#N)cc2)c2c3cc(-c4cnc5ccccc5c4)ccc3ncc21` [Dactolisib, 2-methyl-2-[4-(3-methyl-2-oxo-8-quinolin-3-yl-2,3-dihydroimidazo[4,5-c]quinolin-1-yl)-phenyl] propionitrile], the remaining activity at 1 µM at panel of 442 kinases [1] came out at 100%; on panel of 442 kinases [2], 86%; on panel of 442 kinases [3] it was 90%; at panel of 442 kinases [4], 100%; on panel of 442 kinases [5] it was 86%; on panel of 442 kinases [6], 96%. Besides, the remaining activity at 1 µM at panel of 442 kinases [7] came out at 72%.
`COc1ncc(-c2ccc3nccc(-c4ccnnc4)c3c2)cc1NS(=O)(=O)c1ccc(F)cc1F` [Omipalisib]: the remaining activity at 1 µM at panel of 442 kinases [1] is 100%; at panel of 442 kinases [2] it was 100%; on panel of 442 kinases [3], 91%; on panel of 442 kinases [4] it was 89%; at panel of 442 kinases [5], 100%; on panel of 442 kinases [6], 100%. Also, at panel of 442 kinases [7], the remaining activity at 1 µM came out at 100%.
Consider `FC(F)c1nc2ccccc2n1-c1nc(N2CCOCC2)nc(N2CCOCC2)n1` [ZSTK474, 2-(difluoromethyl)-1-[4,6-di(4-morpholinyl)-1,3,5-triazin-2-yl]-1H-benzimidazole], for which the remaining activity at 1 µM on panel of 442 kinases [1] was 100%; on panel of 442 kinases [2], 73%; on panel of 442 kinases [3] it was 97%; on panel of 442 kinases [4] it was 91%; at panel of 442 kinases [5], 100%; on panel of 442 kinases [6], 84%. Moreover, the remaining activity at 1 µM at panel of 442 kinases [7] came to 100%.
